Data taken from ChEMBL document CHEMBL5505960, “Synthesis and evaluation of butylphthalide-scutellarein hybrids as multifunctional agents for the treatment of Alzheimer's disease” (Eur J Med Chem, 2024).
The source made the active and inactive calls. No cut-off for these calls is given here.

Key:
[1] = Antioxidant activity assessed as trolox equivalent of ORAC radical scavenging activity by ORAC-FL assay relative to trolox; format: functional
[2] = biological target: Amyloid-beta precursor protein (Homo sapiens) (UniProt P05067); assay: Inhibition of amyloid beta (1 to 42) (unknown origin) self induced aggregation at 25 uM by ThT fluorescence assay relative to control
[3] = biological target: Amyloid-beta precursor protein (Homo sapiens) (UniProt P05067); assay: Inhibition of Cu2+ induced amyloid beta (1 to 42)(unknown origin) fibrillation at 25 uM by ThT fluorescence assay relative to control
HT-22 [4] = assay: Neuroprotective activity against amyloid beta (1 to 42) induced cell injury in mouse HT-22 cells assessed as cell viability at 50 uM incubated for 24 hrs by MTT assay; format: functional, cell-based
HT-22 [5] = assay: Neuroprotective activity against amyloid beta (1 to 42)-induced injury in mouse HT-22 cells assessed as reversal of reduced cell synapse length at 2.5 to 10 uM measured after 24 hrs […]; format: functional, cell-based; conditions: dose 2.5-10 µM
HT-22 [6] = assay: Neuroprotective activity against amyloid beta (1 to 42)-induced injury in mouse HT-22 cells assessed as increase in cell viability at 10 uM incubated for 24 hrs by MTT assay relative to control; format: functional
HT-22 [7] = assay: Neuroprotective activity against amyloid beta (1 to 42)-induced injury in mouse HT-22 cells assessed as inhibition of ROS accumulation measured after 24 hrs by DCFH-DA staining based fluorescence microscopy analysis; format: functional, cell-based; conditions: dose 2.5-10 µM
PC-12 [8] = assay: Cytotoxicity against rat PC12 cells at 25 uM measured after 24 hrs by MTT assay; format: functional, cell-based
PC-12 [9] = assay: Neuroprotective activity against H2O2 induced rat PC12 cells assessed as increase in cell viability at 10 uM measured after 24 hrs by MTT assay relative to control; format: functional
BV-2 [10] = assay: Cytotoxicity against LPS-induced mouse BV-2 cells assessed as cell viability at 0.5 to 10 uM incubated for 24 hrs by MTT assay; format: toxicity, cell-based; conditions: bv-2, 24 h, dose 0.5-10 µM
BV-2 [11] = assay: Antineuroinflammatory activity in LPS-induced mouse BV-2 cells assessed as inhibition of ROS production at 10 uM preincubated for 30 mins followed by LPS stimulation and measured after 8 hrs by DCFH-DA staining based analysis; format: functional, cell-based; conditions: time 8.5 hrs
BV-2 [12] = assay: Antineuroinflammatory activity in LPS-induced mouse BV-2 cells assessed as inhibition of NO release at 2.5 uM preincubated for 30 mins followed by LPS stimulation and measured after 24 hrs relative to control; format: functional; set-up: scale not given: the % may be the effect or the level left; conditions: time 24.5 hrs
BV-2 [13] = assay: Antineuroinflammatory activity in LPS-induced mouse BV-2 cells assessed as inhibition of NO release at 10 uM preincubated for 30 mins followed by LPS stimulation and measured after 24 hrs relative to control; format: functional; set-up: scale not given: the % may be the effect or the level left; conditions: time 24.5 hrs
BV-2 [14] = assay: Antineuroinflammatory activity in LPS-induced mouse BV-2 cells assessed as inhibition of TNF-alpha release at 2.5 uM preincubated for 30 mins followed by LPS stimulation and measured after 24 hrs relative to control; format: functional; set-up: scale not given: the % may be the effect or the level left; conditions: time 24.5 hrs
BV-2 [15] = assay: Antineuroinflammatory activity in LPS-induced mouse BV-2 cells assessed as inhibition of IL-1 beta release at 0.5 uM preincubated for 30 mins followed by LPS stimulation and measured after 24 hrs relative to control; format: functional; set-up: scale not given: the % may be the effect or the level left; conditions: time 24.5 hrs
BV-2 [16] = assay: Antineuroinflammatory activity in LPS-induced mouse BV-2 cells assessed as inhibition of IL-1 beta release at 2.5 uM preincubated for 30 mins followed by LPS stimulation and measured after 24 hrs relative to control; format: functional; set-up: scale not given: the % may be the effect or the level left; conditions: time 24.5 hrs
BV-2 [17] = assay: Antineuroinflammatory activity in LPS-induced mouse BV-2 cells assessed as inhibition of TNF-alpha release preincubated for 30 mins followed by LPS stimulation and measured after 24 hrs; format: functional, cell-based; conditions: dose 0.5-10 µM, time 24.5 hrs
BV-2 [18] = assay: Antineuroinflammatory activity in LPS-induced mouse BV-2 cells assessed as inhibition of IL-1 beta release preincubated for 30 mins followed by LPS stimulation and measured after 24 hrs; format: functional, cell-based; conditions: dose 0.5-10 µM, time 24.5 hrs
[19] = Tmax in Balb/C mouse plasma at 30 mg/kg, IG measured upto 8 hrs by LC-MS analysis; format: ADME, organism-based; conditions: po
[20] = Cmax in Balb/C mouse plasma at 30 mg/kg, IG measured upto 8 hrs by LC-MS analysis; format: ADME, organism-based; conditions: po
[21] = AUC (0 to t) in Balb/C mouse plasma at 30 mg/kg, IG measured upto 8 hrs by LC-MS analysis; format: ADME, organism-based; conditions: po
[22] = Half life in Balb/C mouse brain at 30 mg/kg, IG measured upto 8 hrs by LC-MS analysis; format: ADME, organism-based; conditions: po
[23] = Tmax in Balb/C mouse brain at 30 mg/kg, IG measured upto 8 hrs by LC-MS analysis; format: ADME, organism-based; conditions: po
[24] = AUC (0 to t) in Balb/C mouse brain at 30 mg/kg, IG measured upto 8 hrs by LC-MS analysis; format: ADME, organism-based; conditions: in vivo, po
Mus musculus [25] = assay: Neuroprotective activity in C57BL/6 mouse assessed as amelioration of sodium nitrite induced memory impairement at 1.1 to 9.9 mg/kg, IG administered daily for 7 days; format: functional, organism-based; conditions: dose 1.1-9.9 mg/kg, time 7.0 day
Mus musculus [26] = assay: Neuroprotective activity in Sodium nitrite induced cognition impairement in C57BL/6 mouse model assessed as improvement in step-down latency time at 1.1 to 9.9 mg/kg, IG administered daily for 7 days; format: functional, organism-based; conditions: dose 1.1-9.9 mg/kg, time 7.0 day
Mus musculus [27] = assay: Neuroprotective activity in Sodium nitrite induced cognition impairement in C57BL/6 mouse model assessed as increase in SOD activity at 5.0 mg/kg, IG administered daily for 7 days; format: functional, organism-based; conditions: time 7.0 day
Mus musculus [28] = assay: Neuroprotective activity against Abeta42 induced cognition impairement in AD mouse model assessed as reduction in number of error at 1.1 to 9.9 mg/kg, IG administered daily for 7 days by passive avoidance test; format: functional, organism-based; conditions: dose 1.1-9.9 mg/kg, time 7.0 day
Mus musculus [29] = assay: Neuroprotective activity against Abeta42 induced cognition impairement in AD mouse model assessed as alleviation of learning deficit administered daily as IG for 7 days by passive avoidance test; format: functional, organism-based; conditions: time 7.0 day
[30] = biological target: Amyloid-beta precursor protein (Homo sapiens) (UniProt P05067); assay: Inhibition of amyloid beta (1 to 42) (unknown origin) fibrillation assessed as reversal of A-beta 1-42 induced morphological changes at 25 uM measured after 24 hrs by TEM analysis
[31] = biological target: Amyloid-beta precursor protein (Homo sapiens) (UniProt P05067); assay: Inhibition of amyloid beta (1 to 42) (unknown origin) fibrillation assessed as decrease in thickness of amyloid beta fibrils at 25 uM measured after 24 hrs by TEM analysis
[32] = Metal chelating activity assessed as compound-Fe2+ complex formation by measuring bathochromic shift at 301 to 335nm in the presence of FeSO4 by UV-Visible spectrophotometric analysis
[33] = Metal chelating activity assessed as compound-Zn2+ complex formation by measuring bathochromic shift at 301 to 345nm in the presence of ZnCl2 by UV-Visible spectrophotometric analysis
[34] = Metal chelating activity assessed as compound-Al3+ complex formation by measuring bathochromic shift at 301 to 330nm in the presence of AlCl3 by UV-Visible spectrophotometric analysis
[35] = Metal chelating activity assessed as compound-Cu2+ complex formation by measuring hyperchromic shift in the presence of CuCl2 by UV-Visible spectrophotometric analysis
[36] = Metal chelating activity assessed as compound-Zn2+ complex formation by measuring hyperchromic shift in the presence of ZnCl2 by UV-Visible spectrophotometric analysis

Chain of Amyloid-beta precursor protein (Homo sapiens) (P05067 whole entry): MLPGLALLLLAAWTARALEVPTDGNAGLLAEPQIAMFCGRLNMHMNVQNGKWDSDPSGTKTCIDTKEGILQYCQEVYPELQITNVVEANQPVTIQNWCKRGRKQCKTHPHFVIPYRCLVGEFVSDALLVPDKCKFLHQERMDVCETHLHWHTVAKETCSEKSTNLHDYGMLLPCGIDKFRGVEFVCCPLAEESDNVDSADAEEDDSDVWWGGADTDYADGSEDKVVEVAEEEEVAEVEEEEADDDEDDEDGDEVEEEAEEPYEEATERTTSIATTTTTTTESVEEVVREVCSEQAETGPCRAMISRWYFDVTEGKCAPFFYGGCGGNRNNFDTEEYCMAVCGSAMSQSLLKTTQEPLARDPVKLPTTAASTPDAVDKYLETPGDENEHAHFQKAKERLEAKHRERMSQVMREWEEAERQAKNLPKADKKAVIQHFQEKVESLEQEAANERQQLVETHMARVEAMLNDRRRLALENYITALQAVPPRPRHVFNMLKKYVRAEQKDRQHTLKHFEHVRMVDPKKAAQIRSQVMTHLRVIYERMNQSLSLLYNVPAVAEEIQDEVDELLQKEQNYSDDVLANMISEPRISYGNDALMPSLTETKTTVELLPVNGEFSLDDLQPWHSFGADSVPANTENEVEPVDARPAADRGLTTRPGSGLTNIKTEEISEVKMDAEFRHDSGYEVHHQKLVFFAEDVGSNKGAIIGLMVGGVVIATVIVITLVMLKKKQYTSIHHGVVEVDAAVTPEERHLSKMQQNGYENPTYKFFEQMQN

CCCCCC1OC(=O)c2c1cc(OC)c(O)c2O (stereo unspecified) gave an Activity [1] of 2.2, an inhibition [2] of 90.2% and an inhibition [3] of 35.4%. For the same compound, the Activity (HT-22 [4]) was “Active”, the Activity (HT-22 [5]) was “Active” and the Activity (HT-22 [6]) was 89.2%. For the same compound, the Activity (HT-22 [7]) was “Dose-Dependent Effect”, the Activity (PC-12 [8]) was “inactive” and the Activity (PC-12 [9]) was 80.7%. For the same compound, the Activity (BV-2 [10]) was “Non-Toxic”, the Activity (BV-2 [11]) was “Active” and the Activity (BV-2 [12]) was 47%. The Activity (BV-2 [13]) was 77.3%, the Activity (BV-2 [14]) was 40.1% and the Activity (BV-2 [15]) was 36.6%. The Activity (BV-2 [16]) was 49.2%, the Activity (BV-2 [17]) was “Dose-Dependent Effect” and the Activity (BV-2 [18]) was “Dose-Dependent Effect”. The Tmax [19] was 15 min, the Cmax [20] was 879 ng/mL and the AUC(0-t) at 8 h [21] was 852 ng·h/mL. For the same compound, the half-life [22] was 58.2 min, the Tmax [23] was 30 min and the AUCt [24] was 681.3 ng·h/g. The Activity (Mus musculus [25]) was “Active”, the Activity (Mus musculus [26]) was “Active” and the Activity (Mus musculus [27]) was “inactive”. For the same compound, the Activity (Mus musculus [28]) was “Active”, the Activity (Mus musculus [29]) was “Dose-Dependent Effect” and the inhibition [30] was “Active”. The inhibition [31] was “Active”, the Activity [32] was “Active” and the Activity [33] was “Active”. For the same compound, the Activity [34] was “Active”, the Activity [35] was “Active” and the Activity [36] was “Active”.
